Molecules are shown by their SMILES.

The assay is described as follows: Inhibition of rabbit hind leg tissue microsomes ATPase activity of SERCA assessed as ATP hydrolysis. On the set-up: species or system Oryctolagus cuniculus.

The IC50 is the midpoint of a concentration-inhibition curve. Take `CC(c1ccc(O)cc1)C(C)c1ccc(O)cc1` (centres undefined): the IC50 was determined as 28.3 µM.

As to `Oc1cc(Cc2ccccc2)c(O)cc1Cc1ccccc1`, the IC50 worked out at 9.4 µM. For `Oc1ccc2ccccc2c1Cc1c(O)ccc2ccccc12`, the IC50 amounted to 15 µM. With `CC(C)(C)c1cc2c(cc1O)CCC2` the figure was 28.1 µM; with `CCC(C)(c1ccc(O)c(C)c1)c1ccc(O)c(C)c1`, 39.3 µM. With `CC(c1ccccc1)c1cc(C(C)(C)C)cc(C(C)(C)C)c1O` (centres undefined) the figure was 33.8 µM. The same measure for `Cc1cc(C(C)(C)c2cc(C)c(O)c(C)c2)cc(C)c1O`: 19.5 µM.

`CC(C)(C)c1cc(O)c(C(C)(C)C)cc1O`: the IC50 was 0.4 µM. The same measure for `CC(C)Cc1ccc(CC(C)C)c(O)c1`: 18.8 µM; for `Oc1ccc(O)c(C2CCCCCCC2)c1`: 11.5 µM; for `Oc1ccc2ccccc2c1Cc1cccc2ccccc12`: 27.3 µM.

For `Oc1cc(Cc2ccccc2)c(Cc2ccccc2)cc1O`, the IC50 is 23.8 µM. With `CC(C)(C)c1ccc(O)c(Cc2cc(C(C)(C)C)ccc2O)c1` the figure was 11.8 µM; with `CC(C)CCCCCCc1ccc(O)cc1`, 17.2 µM; with `CC(c1ccccc1)(c1ccccc1)c1ccc(O)cc1`, 49.7 µM. For `COc1ccc(C(C)c2cc(C(C)(C)C)cc(C(C)(C)C)c2O)cc1` (centres undefined), the IC50 was determined as 35.3 µM. With `COc1ccc(C(C)c2cc(C(C)(C)C)c(O)c(C(C)(C)C)c2)cc1` (centres undefined) the figure was 45.4 µM; with `CC(C)(C)c1ccc(O)c(C(c2cc(C(C)(C)C)ccc2O)c2cc(C(C)(C)C)ccc2O)c1`, 21.3 µM. With `CC(=O)C1=C(O)[C@@H]2[C@H]3c4c[nH]c5cccc(c45)C[C@H]3C(C)(C)N2C1=O` [CYCLOPIAZONIC ACID] the figure was 0.12 µM.

For the origin of these results see ChEMBL document CHEMBL1143319, “Structure-based virtual screening for novel inhibitors of the sarco/endoplasmic reticulum calcium ATPase and their experimental evaluation” (Bioorg Med Chem, 2009).
